In one experiment the target is T1, human PPARδ (Homo sapiens, UniProt Q03181).
T1 construct: purchased ThermoFisher Scientific PV4685
T1 sequence (Q03181 211-439 limits assumed): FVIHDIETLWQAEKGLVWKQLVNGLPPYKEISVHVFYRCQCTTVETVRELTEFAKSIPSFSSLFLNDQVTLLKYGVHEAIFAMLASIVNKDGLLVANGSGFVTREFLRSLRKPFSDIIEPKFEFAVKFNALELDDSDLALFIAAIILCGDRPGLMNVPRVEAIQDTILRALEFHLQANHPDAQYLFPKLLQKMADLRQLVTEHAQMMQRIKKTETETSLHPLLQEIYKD
Put plainly: LanthaScreen TR-FRET coactivator recruitment assay, PPARδ LBD (C33 peptide). The class given is biochemical. As to conditions: for Emax: read-out: Emax, maximum efficacy, PPARδ; for EC50: TR-FRET coactivator recruitment, human PPARδ LBD, read-out: EC50, half maximal effective concentration, PPARδ. In general terms: In TR-FRET formats the signal depends on donor and acceptor labels being close together.

Another experiment addresses T2, human PPARα (Homo sapiens, UniProt Q07869).
T2 construct: purchased ThermoFisher Scientific PV4684
T2 sequence (Q07869 239-466 limits assumed): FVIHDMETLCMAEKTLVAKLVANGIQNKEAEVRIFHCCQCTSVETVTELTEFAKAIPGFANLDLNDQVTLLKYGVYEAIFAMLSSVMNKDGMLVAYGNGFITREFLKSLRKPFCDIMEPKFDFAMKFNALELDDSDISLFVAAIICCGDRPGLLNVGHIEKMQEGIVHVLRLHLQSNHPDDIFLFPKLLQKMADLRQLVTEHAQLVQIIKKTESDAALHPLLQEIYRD
Briefly: LanthaScreen TR-FRET coactivator recruitment assay, PPARα LBD (PGC1α peptide). In kind it is biochemical. As to conditions: for Emax: read-out: Emax, maximum efficacy, PPARα; for EC50: TR-FRET coactivator recruitment, human PPARα LBD, read-out: EC50, half maximal effective concentration, PPARα.

The target in the next experiment is PPARγ. More on the design: method as in PMID 32909075. Conditions: lowest Kd among nine lipids tested in vitro; cited from earlier work.
The next experiment has as its system Angptl4. Briefly: Angptl4 mRNA expression (qPCR) in 3T3-L1 preadipocytes, without and with PPAR antagonists. As to conditions: agonist and antagonist both 10 μM, 3T3-L1 cells. The class given is cell-based, murine. On the technique in general: In qPCR the cycle at which signal appears reflects the starting amount.
[1] abbreviates: % relative to agonist control GW501516 at the highest concentration, 95% confidence intervals in parentheses.
Where [2] appears, read: 95% confidence intervals in parentheses.
Setting [3] is: % relative to agonist control GW7647 at the highest concentration, 95% confidence intervals in parentheses.

Read-outs that look alike come from different tables or passages of the source.

As a reminder, the Emax is the greatest response seen or fitted, relative to the assay's reference. By Kd is commonly meant the equilibrium constant for the complex coming apart.

As to `CCC/C=C\CCCCCCCCCCCC(=O)O` [C17:1 cis-13, (13Z)-heptadec-13-enoic acid], the Emax on human PPARδ (setting [1]) was 30.6%; on human PPARα (setting [3]) it was 70%. For the same compound, the EC50 stood at 17.8 µM on human PPARδ (setting [2]) and 4.7 µM on human PPARα (setting [2]). In addition, the “Emax, maximum efficacy, PPARα” value on human PPARα (setting [3]) is on record as 69.86 (43, 96.7) a %.
For the compound `CCCCCCCCCCCCCCCCC(=O)O` [C17, Heptadecanoic acid], the Emax is 41.3% at human PPARδ (setting [1]) and 58.9% on human PPARα (setting [3]). Also, the results for the EC50 on human PPARδ (setting [2]) and on human PPARα (setting [2]) were 22.3 µM and 5.04 µM, respectively.
In the same order, the values of `CCCCCC/C=C\CCCCCCCC(=O)O` [C16:1 cis-9, (9Z)-hexadec-9-enoic acid] are 39.5%, 59.1%, 26.4 µM and 2.13 µM.
Regarding `CCCCCC[C@@H]1C[C@@H]1CCCCCCCCCC(=O)O` [C18Δ1 cis-11, (11S,12R)-11,12-methyleneoctadecanoic acid], the “Emax, maximum efficacy, PPARδ” value on human PPARδ (setting [1]) is 57.03 (52.5, 61.6) a %. Further, the Emax at human PPARδ (setting [1]) was determined as 57%; on human PPARα (setting [3]), 54.7%. For the same compound, the values for the EC50 on human PPARδ (setting [2]) and on human PPARα (setting [2]) were 25.8 µM and 7.65 µM, respectively. For the same compound, on PPARγ, the dissociation constant Kd is ~100 µM.
Regarding `CCC[C@@H]1C[C@@H]1CCCCCCCCCCCC(=O)O` [C17Δ1 cis-13, (13S,14R)-13,14-methyleneheptadecanoic acid], the figures for the maximum response (Emax) at human PPARδ (setting [1]) and on human PPARα (setting [3]) were 37.1% and 65%, respectively. The EC50 on human PPARδ (setting [2]) was 26.8 µM; at human PPARα (setting [2]), 4.12 µM. In addition, the “Emax, maximum efficacy, PPARα” value on human PPARα (setting [3]) is recorded as 65.01 (52.5, 77.5) a %.
Turning to `CCCCCC[C@@H]1C[C@@H]1CCCCCCCC(=O)O` [C16Δ1 cis-9, (9S,10R)-9,10-methylenehexadecanoic acid], the maximal response (Emax) on human PPARδ (setting [1]) was 58.1%; on human PPARα (setting [3]) it was 62.3%. In addition, the EC50 on human PPARδ (setting [2]) came to 22 µM; at human PPARα (setting [2]) it was 12.2 µM.
With `CCC(=O)NC[C@H](Cc1ccc(OCCc2nc(-c3ccccc3)oc2C)cc1)N/C(C)=C\C(=O)c1ccc(C(F)(F)F)cc1` [GW6471], in the experiment with Angptl4, the “Reduction of PPAR agonist-mediated Angptl4 expression by the antagonist” value is given as “did not inhibit”.
Same read-out and setting: the figure for `O=C(NCCS(=O)(=O)c1ccc(C(F)(F)F)cn1)c1ccc(Cl)cc1` [GSK3787] is ~50%.
With `CCCCCCCCCCCCCCC(=O)O` [C15, Pentadecanoic acid], the figures for the maximal response (Emax) on human PPARδ (setting [1]) and on human PPARα (setting [3]) were 23.7% and 36.8%, respectively. For the same compound, the figures for the EC50 on human PPARδ (setting [2]) and on human PPARα (setting [2]) were 25.6 µM and 9.6 µM, respectively.
Turning to `CCC/C=C\CCCCCCCCCC(=O)O` [C15:1 cis-11, (11Z)-pentadec-11-enoic acid], the values for the Emax at human PPARδ (setting [1]) and on human PPARα (setting [3]) were 18.9% and 26.6%, respectively. Also, the EC50 at human PPARδ (setting [2]) is 25.7 µM; on human PPARα (setting [2]), 12.8 µM.
Take `CCCCCCCCCCCCCCCCCC(=O)O` [C18, Octadecanoic acid]: the maximal response (Emax) at human PPARα (setting [3]) turned out to be 55.9%. The EC50 on human PPARα (setting [2]) was 6.37 µM.
On to `CC(C)(Sc1ccc(CCN(CCCCC2CCCCC2)C(=O)NC2CCCCC2)cc1)C(=O)O` [GW7647], for which the Emax at human PPARα (setting [3]) turned out to be 86.6%.
On to `CCC[C@@H]1C[C@@H]1CCCCCCCCCC(=O)O` [C15Δ1 cis-11, (11S,12R)-11,12-methylenepentadecanoic acid], for which the Emax on human PPARδ (setting [1]) is 14.9%; on human PPARα (setting [3]), 26.3%. Also, the EC50 was determined as 25.6 µM at human PPARδ (setting [2]) and 14.1 µM on human PPARα (setting [2]).
Regarding `O=C(Nc1ccncc1)c1cc([N+](=O)[O-])ccc1Cl` [T0070907], the “Reduction of PPAR agonist-mediated Angptl4 expression by the antagonist” value with Angptl4 is ~50%.
For the compound `CCCCCCCC/C=C\CCCCCCCC(=O)O` [C18:1 cis-9, (9Z)-octadec-9-enoic acid], the EC50 on human PPARδ (setting [2]) amounted to 18.5 µM; at human PPARα (setting [2]) it was 0.91 µM. Besides, the values for the maximum response (Emax) on human PPARδ and at human PPARα were 51.9% and 52%, respectively.
As for `CCCCCC/C=C\CCCCCCCCCC(=O)O` [C18:1 cis-11, (11Z)-octadec-11-enoic acid], the Emax on human PPARδ (setting [1]) came out at 43.5%; at human PPARα (setting [3]), 45.2%. The results for the EC50 at human PPARδ (setting [2]) and on human PPARα (setting [2]) were 22 µM and 3.5 µM, respectively.
On to `CCCCCCCCCCCCCCCC(=O)O` [C16, Hexadecanoic acid], for which the maximal response (Emax) at human PPARα (setting [3]) came to 52.6%. For the same compound, the EC50 at human PPARα (setting [2]) stood at 5.43 µM.
As to `CCCCCCCC[C@@H]1C[C@@H]1CCCCCCCC(=O)O` [C18Δ1 cis-9, (9S,10R)-9,10-methyleneoctadecanoic acid], the “Emax, maximum efficacy, PPARδ” value on human PPARδ (setting [1]) is recorded as 73.56 (65.9, 81.2) b %. In addition, the Emax was ~74% on human PPARδ (setting [1]) and 51.4% on human PPARα (setting [3]). Also, the EC50 stood at 27.1 µM on human PPARδ (setting [2]) and 5.23 µM on human PPARα (setting [2]).

Values taken from article PMC12605127, “Cyclopropane xenolipids resemble monounsaturated fatty acids and modulate peroxisome proliferator-activated receptors” (Journal of Lipid Research, 2025).
